Reference: patent US20170157013A1, “Metal Amino Acid Complexes for Bacterial Aggregation” (Colgate-Palmolive Company, priority 2015, published 2017)

Columns and labels:
A. viscous bacteria = test: Quantitative bacterial aggregation by absorbance at 610 nm, A. viscous; format: cell-based; conditions: for final test result, absorbance at 610 nm: A. viscous, end of experiment
Streptococcus oralis = test: Quantitative bacterial aggregation by absorbance at 610 nm, S. oralis; format: cell-based; conditions: for OD610: 0.9% NaCl; for change in OD (610 nm) over the course of the experiment / time by which significant drop in absorbance has occurred / time of peak of absorbance: S. oralis; for change in OD (610 nm) over the course of the experiment: about one hour
Protocol: To evaluate the aggregation quantitatively, Streptococcus oralis bacteria was suspended in sterile 0.9% NaCl medium in capped culture tubes. To each tube, a different test sample was added, and the absorbance of the medium at […] was monitored over a period of about one hour. Bacteria of this size will remain suspended in solution for several hours before settling out under gravity. This gives such a solution a uniform haziness or opacity that can be quantified by measuring the absorbance of the solution at 610 nm. The aggregation of bacteria results in clumps of bacterial matter, which initially raises absorbance, followed by a sharp drop in absorbance as the bacterial matter settles out, leaving an increasingly transparent solution. Therefore, a decrease in absorbance signals the formation of bacterial aggregates.

[1] = tested on: oral bacteria in stimulated whole saliva; test: Aggregation of oral bacteria in stimulated whole saliva, culture dish wells; format: cell-based, human; conditions: 15 minutes at room temperature
Protocol: Stimulated whole saliva from a human volunteer was harvested and mixed either with an untreated control (water), metal salt solutions (0.2% zinc oxide or 0.1% zinc oxide/0.05% zinc citrate mixture), amino acid solutions (0.3% arginine, 1% arginine, or 0.94% lysine), or metal-amino acid complex solutions (1.2% zinc-lysine complex, 1.33% zinc-arginine complex, or 1% copper-lysine complex) as described in the present disclosure. The solutions were incubated for 15 minutes at room temperature in culture dish wells, then photographs were taken.

[2] = Stability of ZLC in solution (low-pH preparation); format: physicochemical; conditions: final reaction mixture, clear, slightly acidic pH (<pH 7)
Protocol: In an alternative method, lysine HCl (2 molar equivalents) is dissolved in deionized water with stirring at room temperature. Concentrated hydrochloric acid equal to approximately 0.5 molar equivalent is added to the reaction mixture. ZnO (1 molar equivalent) is then added to the reaction mixture, and the mixture is stirred until complete dissolution occurs, typically within a minutes to a few hours. The pH of the reaction is kept at 6 or below. The ZLC complex can be kept in solution in the final reaction mixture, which is clear, for more than 3 months at slightly acidic pH (i.e., <pH 7) without precipitation of ZnO. Alternatively, the reaction mixture can be spray dried to yield ZLC powder, or the reaction mixture can be adjusted to a near-neutral pH (e.g., 6.8), and the crystalline salt of ZLC can be isolated upon slow evaporation of the concentrated ZLC reaction mixture.

[3] = 1 minute, 1.5% arginine, 0.94% lysine, 0.35% ZnCl2, 1.2% Zn-Lysine, 1.33% Zn-Arg
[4] = 14 minutes, 1.5% arginine, 0.94% lysine, 0.35% ZnCl2, 1.2% Zn-Lysine, 1.33% Zn-Arg
[5] = 27 minutes, 1.5% arginine, 0.94% lysine, 0.35% ZnCl2, 1.2% Zn-Lysine, 1.33% Zn-Arg
[6] = 46 minutes, 1.5% arginine, 0.94% lysine, 0.35% ZnCl2, 1.2% Zn-Lysine, 1.33% Zn-Arg
[7] = 66 minutes, 1.5% arginine, 0.94% lysine, 0.35% ZnCl2, 1.2% Zn-Lysine, 1.33% Zn-Arg
[8] = 1 minute, 1.5% arginine, 0.94% lysine, 0.35% ZnCl2, 1.2% Zn-Lys, 1.33% Zn-Arg
[9] = 9 minutes, 1.5% arginine, 0.94% lysine, 0.35% ZnCl2, 1.2% Zn-Lys, 1.33% Zn-Arg
[10] = 21 minutes, 1.5% arginine, 0.94% lysine, 0.35% ZnCl2, 1.2% Zn-Lys, 1.33% Zn-Arg
[11] = 28 minutes, 1.5% arginine, 0.94% lysine, 0.35% ZnCl2, 1.2% Zn-Lys, 1.33% Zn-Arg
[12] = 40 minutes, 1.5% arginine, 0.94% lysine, 0.35% ZnCl2, 1.2% Zn-Lys, 1.33% Zn-Arg
[13] = 55 minutes, 1.5% arginine, 0.94% lysine, 0.35% ZnCl2, 1.2% Zn-Lys, 1.33% Zn-Arg
[14] = 1.5% arginine, 0.94% lysine, 0.35% zinc chloride, 1.2% zinc-lysine complex, 1.33% zinc-arginine complex
[15] = 0.2% zinc oxide, 0.1% zinc oxide/0.05% zinc citrate, 0.3% arginine, 0.94% lysine, 1.2% zinc-lysine, 1.33% zinc-arginine, 1% copper-lysine
[16] = 1.2% zinc-lysine complex, 1.33% zinc-arginine complex

Molecule | OD610 (A. viscous bacteria; [3]) | OD610 (A. viscous bacteria; [4]) | OD610 (A. viscous bacteria; [5]) | OD610 (A. viscous bacteria; [6]) | OD610 (A. viscous bacteria; [7]) | OD610 (Streptococcus oralis; [8]) | OD610 (Streptococcus oralis; [9]) | OD610 (Streptococcus oralis; [10]) | OD610 (Streptococcus oralis; [11]) | OD610 (Streptococcus oralis; [12]) | OD610 (Streptococcus oralis; [13]) | change in OD (610 nm) over the course of the experiment (Streptococcus oralis; [14]) | observation of aggregate formation in saliva [1, 15] | further results
N=C(N)NCCC[C@H](N)C(=O)O [Arginine, arginine] | 0.438 | 0.432 | 0.427 | 0.418 | 0.424 | 0.492 | 0.473 | 0.455 | 0.449 | 0.441 | 0.428 | no appreciable change in OD (610 nm) or a rise in OD (610 nm) | no change was observed compared to the negative control | OD610 (A. viscous bacteria; 1 minute, 5% arginine): 0.341; OD610 (A. viscous bacteria; 14 minutes, 5% arginine): 0.334; OD610 (A. viscous bacteria; 27 minutes, 5% arginine): 0.335; OD610 (A. viscous bacteria; 46 minutes, 5% arginine): 0.333; OD610 (A. viscous bacteria; 66 minutes, 5% arginine): 0.333; OD610 (Streptococcus oralis; 1 minute, 5% arginine): 0.496; OD610 (Streptococcus oralis; 9 minutes, 5% arginine): 0.468; OD610 (Streptococcus oralis; 21 minutes, 5% arginine): 0.450; OD610 (Streptococcus oralis; 28 minutes, 5% arginine): 0.446; OD610 (Streptococcus oralis; 40 minutes, 5% arginine): 0.440; OD610 (Streptococcus oralis; 55 minutes, 5% arginine): 0.435; change in OD (610 nm) over the course of the experiment (Streptococcus oralis; 5% arginine): no appreciable change in OD (610 nm) or a rise in OD (610 nm); observation of aggregate formation in saliva ([1]; 1% arginine): no change was observed compared to the negative control
NCCCC[C@H](N)C(=O)O [Lysine, lysine] | 0.416 | 0.413 | 0.411 | 0.410 | 0.409 | 0.537 | 0.547 | 0.552 | 0.553 | 0.555 | 0.555 | no appreciable change in OD (610 nm) or a rise in OD (610 nm) | no change was observed compared to the negative control | 
Cl.Cl.NCCCCC(N)C(=O)[O-].NCCCCC(N)C(=O)[O-].O.O.[Zn+2] (centres unmarked) [ZLC, zinc-lysine-chloride complex] | 0.454 | 0.554 | 0.175 | 0.032 | 0.014 | 0.549 | 0.551 | 0.574 | 0.515 | 0.357 | 0.182 | peak of absorbance at about 21 minutes, followed by a significant drop | Large aggregates of material slowly formed and settled to the bottom of the dishes | final test result, absorbance at 610 nm (A. viscous bacteria): nearly zero absorbance; time kept in solution without precipitation of ZnO [2]: more than 3 months; time by which significant drop in absorbance has occurred (Streptococcus oralis; [16]): about 55 minutes; time of peak of absorbance (Streptococcus oralis; [16]): about 21 minutes
[Cl-].[Cl-].[Zn+2] [ZnCl2, zinc chloride] | 0.315 | 0.315 | 0.316 | 0.391 | 0.255 | 0.572 | 0.584 | 0.615 | 0.680 | 0.652 | 0.397 | no appreciable change in OD (610 nm) or a rise in OD (610 nm) |  | 
[O]=[Zn] [zinc oxide] |  |  |  |  |  |  |  |  |  |  |  |  | only undissolved and/or precipitated metal salt | 
copper-lysine complex |  |  |  |  |  |  |  |  |  |  |  |  | Large aggregates of material slowly formed and settled to the bottom of the dishes | 
zinc-arginine complex [Zn-Arg] | 0.436 | 0.474 | 0.623 | 0.369 | 0.025 | 0.563 | 0.568 | 0.575 | 0.620 | 0.616 | 0.361 | brief rise in absorbance which peaks at about 28 minutes, followed by a significant drop in absorbance | Large aggregates of material slowly formed and settled to the bottom of the dishes | final test result, absorbance at 610 nm (A. viscous bacteria): nearly zero absorbance; time by which significant drop in absorbance has occurred (Streptococcus oralis; [16]): about 55 minutes; time of peak of absorbance (Streptococcus oralis; [16]): about 28 minutes
